Measurements: ChEMBL document CHEMBL1201862, “PubChem BioAssay data set” (2004)
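Each compound was tested at five concentrations against cells in 96-well plates for 48 hours. At the GI50, growth is halved.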 Calls of active or inactive are those of the source. Cut-off read from the data, not from the text of the source: active = GI50 up to about 1.1 µM and inactive = higher.

What was measured:
Assay in all cases: NCI anticancer screen, dose series, 48 h
HT-29 = tested on: HT-29
SNB-75 = tested on: SNB-75
SK-OV-3 = tested on: SK-OV-3
SF-295 = tested on: SF-295
ACHN = tested on: ACHN
HOP-62 = tested on: HOP-62
SN12C = tested on: SN12C
MOLT-4 = tested on: MOLT-4
U-251 = tested on: U-251
A498 = tested on: A498
DU-145 = tested on: DU-145
T47D = tested on: T47D
COLO 205 = tested on: COLO 205
HCC 2998 = tested on: HCC 2998
MCF7 = tested on: MCF7
PC-3 = tested on: PC-3
SK-MEL-28 = tested on: SK-MEL-28
IGROV-1 = tested on: IGROV-1
Malme-3M = tested on: Malme-3M
HCT-15 = tested on: HCT-15
UACC-257 = tested on: UACC-257
SF-539 = tested on: SF-539
NCI-H23 = tested on: NCI-H23
KM12 = tested on: KM12
MDA-MB-231 = tested on: MDA-MB-231
HOP-92 = tested on: HOP-92
CCRF-CEM = tested on: CCRF-CEM
OVCAR-5 = tested on: OVCAR-5
TK-10 = tested on: TK-10
SW-620 = tested on: SW-620
EKVX = tested on: EKVX
SNB-19 = tested on: SNB-19
CAKI-1 = tested on: CAKI-1
HL-60 = tested on: HL-60
NCI/ADR-RES = tested on: NCI/ADR-RES
OVCAR-3 = tested on: OVCAR-3
SK-MEL-2 = tested on: SK-MEL-2
SR = tested on: SR
SF-268 = tested on: SF-268
SK-MEL-5 = tested on: SK-MEL-5
UO-31 = tested on: UO-31
MDA-N = tested on: MDA-N
OVCAR-4 = tested on: OVCAR-4
A549 = tested on: A549
LOX IMVI = tested on: LOX IMVI
RPMI-8226 = tested on: RPMI-8226
K562 = tested on: K562
786-0 = tested on: 786-0
HCT-116 = tested on: HCT-116
NCI-H460 = tested on: NCI-H460
OVCAR-8 = tested on: OVCAR-8
Hs-578T = tested on: Hs-578T
M14 = tested on: M14
MDA-MB-435 = tested on: MDA-MB-435
BT-549 = tested on: BT-549
UACC-62 = tested on: UACC-62
NCI-H522 = tested on: NCI-H522
RXF 393 = tested on: RXF 393
NCI-H226 = tested on: NCI-H226

Measured: GI50

O=C(Nc1ccccc1)N(C1=NCC(CI)S1)c1ccc(F)c(F)c1 (stereo not given)
28.1 µM: HCT-15
inactive: HT-29 27 µM | SNB-75 12.6 µM | SK-OV-3 > 100 µM | SF-295 > 100 µM | ACHN 49.4 µM | HOP-62 > 100 µM | SN12C 81.5 µM | MOLT-4 19.5 µM | U-251 54.1 µM | A498 24.9 µM | DU-145 > 100 µM | T47D 18.3 µM | COLO 205 56.1 µM | HCC 2998 55.8 µM | MCF7 22.4 µM | PC-3 25.4 µM | SK-MEL-28 12.4 µM | IGROV-1 38.8 µM | Malme-3M 55.7 µM | UACC-257 31 µM | SF-539 33.2 µM | NCI-H23 29.2 µM | KM12 32.6 µM | MDA-MB-231 24.8 µM | HOP-92 7.03 µM | CCRF-CEM 19.3 µM | OVCAR-5 > 100 µM | TK-10 44 µM | SW-620 28.2 µM | EKVX > 100 µM | SNB-19 > 100 µM | CAKI-1 24.1 µM | HL-60 21.4 µM | NCI/ADR-RES 30.8 µM | OVCAR-3 28.3 µM | SK-MEL-2 23.9 µM | SR 23.8 µM | SF-268 21.3 µM | SK-MEL-5 17.3 µM | UO-31 44.7 µM | MDA-N 24.6 µM | OVCAR-4 29.4 µM | A549 26.4 µM | LOX IMVI 15.2 µM | RPMI-8226 21.2 µM | K562 27 µM | 786-0 43.2 µM | HCT-116 29.1 µM | NCI-H460 35.2 µM | OVCAR-8 47.8 µM | Hs-578T 64 µM

[N-]=[N+]=C(C(=O)N1CCCC1=O)S(=O)(=O)c1ccccc1
51.9 µM: HCT-15
inactive: HT-29 > 10 µM | M14 91.2 µM | SNB-75 87.7 µM | MDA-MB-435 77.8 µM | SF-295 > 100 µM | ACHN > 100 µM | HOP-62 58.6 µM | SN12C > 100 µM | MOLT-4 50.2 µM | U-251 > 100 µM | DU-145 > 100 µM | BT-549 > 100 µM | COLO 205 > 100 µM | UACC-62 70.6 µM | NCI-H522 30.9 µM | HCC 2998 > 100 µM | MCF7 32.7 µM | PC-3 > 100 µM | SK-MEL-28 48.5 µM | IGROV-1 > 100 µM | Malme-3M 28.3 µM | UACC-257 > 100 µM | SF-539 98.6 µM | NCI-H23 72.9 µM | KM12 > 100 µM | MDA-MB-231 > 100 µM | CCRF-CEM 80.7 µM | TK-10 > 100 µM | RXF 393 70.6 µM | SW-620 > 100 µM | EKVX > 100 µM | SNB-19 > 100 µM | HL-60 55.1 µM | NCI/ADR-RES > 100 µM | OVCAR-3 76 µM | SK-MEL-2 62.5 µM | SR 87.7 µM | SF-268 > 100 µM | SK-MEL-5 98.9 µM | UO-31 > 100 µM | MDA-N 44 µM | A549 > 100 µM | LOX IMVI 42.9 µM | RPMI-8226 48.3 µM | K562 69.5 µM | 786-0 97.9 µM | HCT-116 80.4 µM | NCI-H460 39 µM | OVCAR-8 > 100 µM | Hs-578T 29.4 µM

CN(C)CCCOC(=O)C(O)(Cc1ccccc1)C1CC1 (stereo not given)
inactive: HT-29 > 100 µM | M14 > 100 µM | SNB-75 79.8 µM | MDA-MB-435 > 100 µM | SK-OV-3 > 100 µM | SF-295 > 100 µM | NCI-H226 > 100 µM | ACHN > 100 µM | HOP-62 > 100 µM | SN12C > 100 µM | MOLT-4 > 100 µM | U-251 > 100 µM | A498 > 100 µM | DU-145 > 100 µM | T47D > 100 µM | COLO 205 > 100 µM | UACC-62 > 100 µM | NCI-H522 > 100 µM | HCC 2998 > 100 µM | MCF7 > 100 µM | PC-3 > 100 µM | SK-MEL-28 > 100 µM | IGROV-1 > 100 µM | Malme-3M > 100 µM | UACC-257 > 100 µM | SF-539 > 100 µM | NCI-H23 > 100 µM | KM12 > 100 µM | MDA-MB-231 > 100 µM | HOP-92 > 100 µM | CCRF-CEM > 100 µM | OVCAR-5 > 100 µM | TK-10 > 100 µM | RXF 393 > 100 µM | SW-620 > 100 µM | EKVX > 100 µM | SNB-19 > 100 µM | CAKI-1 > 100 µM | HL-60 > 100 µM | NCI/ADR-RES > 100 µM | OVCAR-3 > 100 µM | SK-MEL-2 > 100 µM | SR > 100 µM | SF-268 > 100 µM | SK-MEL-5 > 100 µM | MDA-N > 100 µM | OVCAR-4 > 100 µM | A549 > 100 µM | LOX IMVI > 100 µM | RPMI-8226 > 100 µM | K562 > 100 µM | 786-0 > 100 µM | HCT-116 > 100 µM | NCI-H460 > 100 µM | OVCAR-8 > 100 µM | Hs-578T > 100 µM
> 100 µM: HCT-15
